Test results taken from PubChem BioAssay (NCI).
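Values below derive from 48-hour exposures of cells grown in 96-well plates, with endpoints linearly interpolated between the two concentrations bracketing the appropriate inhibition level. TGI: concentration producing complete growth inhibition.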

Columns and labels:
Experiment in all cases: growth of human tumour cells (NCI), 48 h
OVCAR-5 ovarian = tested on: OVCAR-5 ovarian
786-0 renal = tested on: 786-0 renal
MCF7 breast = tested on: MCF7 breast
SNB-19 CNS = tested on: SNB-19 CNS
HL-60(TB) leukemia = tested on: HL-60(TB) leukemia
RPMI-8226 leukemia = tested on: RPMI-8226 leukemia
HOP-62 NSCLC = tested on: HOP-62 NSCLC
SR leukemia = tested on: SR leukemia
MDA-MB-435 = tested on: MDA-MB-435
OVCAR-8 ovarian = tested on: OVCAR-8 ovarian
M14 melanoma = tested on: M14 melanoma
A549 NSCLC = tested on: A549 NSCLC
SNB-75 CNS = tested on: SNB-75 CNS
OVCAR-3 ovarian = tested on: OVCAR-3 ovarian
SK-MEL-5 melanoma = tested on: SK-MEL-5 melanoma
K-562 leukemia = tested on: K-562 leukemia
TK-10 renal = tested on: TK-10 renal
SF-268 CNS = tested on: SF-268 CNS
HS 578T breast = tested on: HS 578T breast
IGROV1 ovarian = tested on: IGROV1 ovarian
LOX IMVI melanoma = tested on: LOX IMVI melanoma
NCI-H522 lung = tested on: NCI-H522 lung
A498 renal = tested on: A498 renal
ACHN renal = tested on: ACHN renal
NCI-H23 lung = tested on: NCI-H23 lung
HCT-15 colon = tested on: HCT-15 colon
BT-549 breast = tested on: BT-549 breast
COLO 205 colon = tested on: COLO 205 colon
U251 CNS = tested on: U251 CNS
MALME-3M melanoma = tested on: MALME-3M melanoma
CCRF-CEM leukemia = tested on: CCRF-CEM leukemia
SF-295 CNS = tested on: SF-295 CNS
SK-MEL-2 melanoma = tested on: SK-MEL-2 melanoma
NCI-H226 lung = tested on: NCI-H226 lung
CAKI-1 renal = tested on: CAKI-1 renal
MDA-MB-231 breast = tested on: MDA-MB-231 breast
KM12 colon = tested on: KM12 colon
NCI-H460 lung = tested on: NCI-H460 lung
MOLT-4 leukemia = tested on: MOLT-4 leukemia
SW-620 colon = tested on: SW-620 colon
SK-MEL-28 melanoma = tested on: SK-MEL-28 melanoma
NCI/ADR-RES ovarian = tested on: NCI/ADR-RES ovarian
UO-31 renal = tested on: UO-31 renal
PC-3 prostate = tested on: PC-3 prostate
SK-OV-3 ovarian = tested on: SK-OV-3 ovarian
OVCAR-4 ovarian = tested on: OVCAR-4 ovarian
UACC-257 melanoma = tested on: UACC-257 melanoma
HCT-116 colon = tested on: HCT-116 colon
EKVX NSCLC = tested on: EKVX NSCLC
HCC-2998 colon = tested on: HCC-2998 colon
HOP-92 NSCLC = tested on: HOP-92 NSCLC
SN12C renal = tested on: SN12C renal
MDA-N = tested on: MDA-N
HT29 colon = tested on: HT29 colon

Measured: TGI

O=C(O)CCNC(=O)c1cc(N(CCBr)CCBr)c([N+](=O)[O-])cc1[N+](=O)[O-]
> 100 µM: all assays above
